Molecular target: T1, FeCH (ferrochelatase) (Cereibacter sphaeroides, UniProt Q3IYK5, Y58H)
T1 construct: gene HemH; His-tagged, pET14b, E. coli Rosetta pLysS
Test: spectrophotometric ferrochelatase assay (DIX consumption at […] nm, isosbestic reference […] nm)
Type: biochemical
Conditions: 1 µM FeCH, 30 µM DIX, 100 µM CoCl2, 25 mM Tris pH 7.4, 0.15% Tween 80; active, substantially lower than wild type

T1 sequence (Q3IYK5 entry or part of it Y58H): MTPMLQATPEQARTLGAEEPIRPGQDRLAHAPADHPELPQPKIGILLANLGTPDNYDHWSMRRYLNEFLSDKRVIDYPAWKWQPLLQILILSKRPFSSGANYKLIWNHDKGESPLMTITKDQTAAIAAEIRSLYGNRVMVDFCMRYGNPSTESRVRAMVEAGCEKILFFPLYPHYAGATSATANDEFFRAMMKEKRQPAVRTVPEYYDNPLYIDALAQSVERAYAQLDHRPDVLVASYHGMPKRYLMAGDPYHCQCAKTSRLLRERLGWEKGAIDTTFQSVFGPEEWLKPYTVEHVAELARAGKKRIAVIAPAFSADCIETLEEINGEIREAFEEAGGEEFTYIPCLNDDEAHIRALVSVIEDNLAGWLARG

## CC1=C(CCC(=O)O)c2cc3nc(cc4[nH]c(cc4C)cc4[nH]c(cc1n2)cc4C)C(C)=C3CCC(=O)O [deuteroporphyrin IX]
  spectrophotometric ferrochelatase assay (DIX consumption at 496 nm, isosbestic r): the ΔpufQ PSvar version of the FeCH protein is active

From PMC5725709, “PufQ regulates porphyrin flux at the haem/bacteriochlorophyll branchpoint of tetrapyrrole biosynthesis via interactions with ferrochelatase” (Molecular Microbiology, 2017)
